Data reported in publication PMC7356228, “Alvaxanthone, a Thymidylate Synthase Inhibitor with Nematocidal and Tumoricidal Activities” (Molecules, 2020).
Like-named read-outs stand apart in the source and are kept apart here.

Experiments:
CeTS = target: T1, CeTS (Caenorhabditis elegans, UniProt Q9Y052); assay: Inhibition of TS-catalyzed reaction (tritium release from [5-3H]dUMP); type: biochemical, C. elegans
T1 sequence (Q9Y052 1-315): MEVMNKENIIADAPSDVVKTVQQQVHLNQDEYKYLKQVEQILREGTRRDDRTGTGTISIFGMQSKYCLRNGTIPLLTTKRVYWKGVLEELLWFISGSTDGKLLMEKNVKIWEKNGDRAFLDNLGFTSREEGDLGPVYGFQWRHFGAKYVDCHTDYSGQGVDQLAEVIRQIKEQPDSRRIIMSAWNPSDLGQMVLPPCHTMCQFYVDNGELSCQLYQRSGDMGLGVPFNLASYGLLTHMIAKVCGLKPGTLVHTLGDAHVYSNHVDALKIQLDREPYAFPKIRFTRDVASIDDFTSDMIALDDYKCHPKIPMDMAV
Description: (§1) The recombinant human, rat, mouse, T. spiralis and C. elegans TS proteins were produced, purified and separated into phosphorylated and non-phosphorylated fraction, as previously described. TS activity was monitored, following tritium release from [5-^3H]dUMP, and its inhibition studied as earlier reported.

TsTS = TsTS (Trichinella spiralis, UniProt Q9NDD3); assay: as above; type: biochemical, T. spiralis; conditions: 20 µM dUMP; for IC50: IC50 Assessment; for remaining activity at 100 µM: compound 100 µM; for remaining activity at 1000 µM: compound 1000 µM
Description: as §1

hTS = target: T2, hTS (Homo sapiens, UniProt P04818); assay: as above; type: biochemical; conditions: for IC50: read-out: IC50 Assessment
T2 construct: made in house
Description: as §1

mTS = target: T3, mTS (Mus musculus, UniProt P07607); assay: as above; type: biochemical
T3 construct: made in house
Description: as §1

[1] = system: U-118 MG human glioblastoma cells; assay: Cytotoxicity, neutral red uptake (NR) assay; type: cell-based
Procedure: (§2) Biological effect of alvaxanthone and rheediaxanthone B on normal (BJ) and cancer cells (U-118 MG and SCC-15) was estimated using two viability assays, the neutral red uptake (NR) and tetrazolium salts reduction (XTT) assays.
(§3) Human glioblastoma cells U-118 MG (ATCC® HTB-15), human squamous carcinoma cells SCC-15 (ATCC® CRL-1623), and normal human skin fibroblasts (ATCC® CRL-2522) were grown, their morphology checked, and number and viability estimated as earlier presented.
(§4) Influence of selected compounds on cells was tested by performing the cytotoxicity (NR and XTT) assays, proliferation assay, cell adhesion assay, cell migration assay, determination of intracellular ATP level, and apoptosis assay as previously reported.

[2] = system: SCC-15 human squamous carcinoma cells; assay: Cytotoxicity, neutral red uptake (NR) assay; type: cell-based; conditions: Homo sapiens
Procedure: as §2, §3, §4

[3] = system: BJ normal human skin fibroblasts; assay: Cytotoxicity, neutral red uptake (NR) assay; type: cell-based; conditions: Homo sapiens, Skin fibroblast
Procedure: as §2, §3, §4

C. elegans = assay: Toxicity to C. elegans (population growth); conditions: Caenorhabditis elegans, read-out: LC50 (reduction of growth of the nematode population)
Procedure: C. elegans was maintained as previously described. The effect of the compounds studied on C. elegans population growth was determined as earlier presented.

[4] = 20 µM dUMP, 250 µM meTHF, read-out: IC50 Assessment
[5] = compound 100 µM, 20 µM dUMP, 250 µM meTHF, read-out: % Remaining Activity
[6] = compound 1000 µM, 20 µM dUMP, 250 µM meTHF, read-out: % Remaining Activity
[7] = IC50 Assessment, 20 µM dUMP, 250 µM meTHF
[8] = 20 µM dUMP, 50 µM meTHF, read-out: IC50 Assessment
[9] = compound 1000 µM, 20 µM dUMP, 50 µM meTHF, read-out: % Remaining Activity
[10] = compound 10 µM, 20 µM dUMP, 250 µM meTHF
[11] = compound 667 µM, 20 µM dUMP, 250 µM meTHF
[12] = compound 50 µM, 20 µM dUMP, 250 µM meTHF
[13] = compound 500 µM, 20 µM dUMP, 250 µM meTHF

TsTS, sequence (Q9NDD3 entry or part of it): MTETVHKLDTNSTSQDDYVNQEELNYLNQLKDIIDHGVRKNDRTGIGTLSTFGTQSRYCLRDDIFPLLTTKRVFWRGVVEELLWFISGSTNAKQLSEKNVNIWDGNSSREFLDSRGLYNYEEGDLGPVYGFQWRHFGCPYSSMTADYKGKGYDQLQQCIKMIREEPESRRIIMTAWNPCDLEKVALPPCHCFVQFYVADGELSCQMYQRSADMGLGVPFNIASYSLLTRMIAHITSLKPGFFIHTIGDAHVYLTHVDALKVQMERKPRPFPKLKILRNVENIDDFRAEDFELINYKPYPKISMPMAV
T3 sequence (P07607 whole entry): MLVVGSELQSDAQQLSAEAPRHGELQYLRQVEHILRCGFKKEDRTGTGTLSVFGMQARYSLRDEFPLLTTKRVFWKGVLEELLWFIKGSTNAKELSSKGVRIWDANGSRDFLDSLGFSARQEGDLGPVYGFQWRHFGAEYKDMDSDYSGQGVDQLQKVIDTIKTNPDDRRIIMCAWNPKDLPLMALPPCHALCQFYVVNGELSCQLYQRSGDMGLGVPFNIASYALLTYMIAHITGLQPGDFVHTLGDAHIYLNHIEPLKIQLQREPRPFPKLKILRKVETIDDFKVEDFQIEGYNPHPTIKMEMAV
T2 sequence (P04818 whole entry): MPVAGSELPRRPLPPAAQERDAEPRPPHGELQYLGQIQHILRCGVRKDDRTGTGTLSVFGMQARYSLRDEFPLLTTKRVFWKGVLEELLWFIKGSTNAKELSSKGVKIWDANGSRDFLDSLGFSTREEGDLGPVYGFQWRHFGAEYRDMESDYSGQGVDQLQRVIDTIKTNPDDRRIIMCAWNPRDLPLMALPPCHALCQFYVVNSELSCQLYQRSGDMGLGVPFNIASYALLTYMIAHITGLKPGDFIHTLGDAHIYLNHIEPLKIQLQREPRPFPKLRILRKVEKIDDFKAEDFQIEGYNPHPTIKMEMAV

Row | SMILES | IC50 (CeTS; [4]) | remaining activity at 100 µM (CeTS; [5]) | remaining activity at 1000 µM (CeTS; [6]) | IC50 (TsTS; 250 µM meTHF) | remaining activity at 1000 µM (TsTS; 250 µM meTHF) | remaining activity at 100 µM (hTS; [5]) | remaining activity at 1000 µM (hTS; [6]) | remaining activity at 1000 µM (mTS; [6]) | other results
1 | CC(C)=CCc1c(O)ccc2c1OC(c1ccccc1)CC2=O (racemic) [(±)-7-Hydro-xy-8-C-prenyl flavanone] | > 100 µM | 65% | 3% | > 100 µM | 25% | 74% | 7% | 2% | remaining activity at 100 µM (TsTS; 250 µM meTHF): 90%; remaining activity at 100 µM (mTS; [5]): 71%
2 | COc1c(O)cc2oc3ccccc3c(=O)c2c1O [1,3-OH-2-OMe-Xanthone (16), 1,3-OH-2-OMe-Xanthone] | – | – | – | > 100 µM | 23% | – | – | – | IC50 ([1]; U-118-MG): > 40 µM; IC50 [2]: > 40 µM; IC50 [3]: > 40 µM; remaining activity at 1000 µM (CeTS): 65%; IC50 (CeTS; [7]): > 1000 µM; IC50 (TsTS; 50 µM meTHF): > 100 µM; remaining activity at 100 µM (TsTS; 50 µM meTHF): 82%; remaining activity at 100 µM (TsTS; 250 µM meTHF): 92%; remaining activity at 1000 µM (TsTS; 50 µM meTHF): 32%; remaining activity at 100 µM (hTS): 54%; remaining activity at 1000 µM (hTS): 27%; remaining activity at 100 µM (mTS): 67%; remaining activity at 1000 µM (mTS): 32%
3 | COc1ccc2oc3cccc(O)c3c(=O)c2c1 [1-OH-7-OMe-Xanthone (19), 1-OH-7-OMe-Xanthone] | – | – | – | – | – | – | – | – | IC50 ([1]; neutral red assay, U-118 MG, read-out: IC50): 40 µM; IC50 ([2]; SCC-15, neutral red assay, read-out: IC50): > 40 µM; IC50 ([3]; neutral red assay, BJ, read-out: IC50): > 40 µM; IC50 (CeTS; [8]): > 1000 µM; remaining activity at 1000 µM (CeTS; [9]): 81%; IC50 (TsTS; 50 µM meTHF): > 1000 µM; remaining activity at 1000 µM (TsTS; 50 µM meTHF): 89%; IC50 (hTS; 20 µM dUMP, 50 µM meTHF): > 1000 µM; remaining activity at 1000 µM (hTS; [9]): 100%; IC50 (mTS; [8]): > 1000 µM; remaining activity at 1000 µM (mTS; [9]): 94%
4 | COc1ccc2oc3ccccc3c(=O)c2c1 [2-OMe-Xanthone (20), 2-OMe-Xanthone] | – | – | – | – | – | – | – | – | IC50 ([1]; U-118-MG): > 40 µM; IC50 [2]: > 40 µM; IC50 [3]: > 40 µM; LC50 (C. elegans): 33.8 ± 2.1 µM; remaining activity at 1000 µM (CeTS): 95%; IC50 (CeTS; IC50 Assessment, 20 µM dUMP, 50 µM meTHF): > 1000 µM; IC50 (TsTS; 50 µM meTHF): > 1000 µM; remaining activity at 1000 µM (TsTS; 50 µM meTHF): 92%; remaining activity at 1000 µM (hTS): 88%; IC50 (hTS; 20 µM dUMP, 50 µM meTHF): > 1000 µM; remaining activity at 1000 µM (mTS): 84%; IC50 (mTS; [8]): > 1000 µM
5 | CC1(C)CCc2cc3c(cc2O1)OC(c1ccccc1)CC3=O (stereo not drawn) [6-Chromane-O-7-flavanone (11), 6-Chromane-O-7-flavanone] | – | 24% | – | > 1000 µM | 85% | 37% | – | 10% | remaining activity at 10 µM (CeTS; [10]): 100%; remaining activity at 10 µM (hTS; [10]): 100%; remaining activity at 100 µM (mTS; [5]): 91%
6 | O=C(OCC1=C[C@@H](O)[C@@H]2C=CO[C@@H](O[C@@H]3O[C@H](CO)[C@@H](O)[C@H](O)[C@H]3O)[C@H]12)c1ccc(O)cc1 [Agnuside (8), Agnuside] | > 100 µM | 100% | 36% | > 1000 µM | 63% | 90% | 47% | 72% | IC50 (mTS; [4]): > 1000 µM
7 | COc1c(O)cc2oc(-c3ccccc3)c(O)c(=O)c2c1O [Alnusin (12), Alnusin] | > 1000 µM | – | 80% | – | > 100% | 85% | 30% | > 100% | –
8 | O=C1c2c(O)cccc2C([C@@H]2O[C@H](CO)[C@@H](O)[C@H](O)[C@H]2O)c2cc(CO)cc(O)c21 (stereo partly drawn) [Aloin (2), Aloin] | > 100 µM | 83% | 36% | > 1000 µM | 93% | 94% | 49% | 95% | IC50 (mTS; [4]): > 1000 µM
9 | COC(=O)/C=C/C(C)=C\C=C\C(C)=C\C=C\C=C(C)\C=C\C=C(C)\C=C\C(=O)O [Bixin (6), Bixin] | – | – | – | – | – | – | – | – | remaining activity at 67 µM (CeTS; compound 67 µM, 20 µM dUMP, 250 µM meTHF): 93%; remaining activity at 667 µM (CeTS; [11]): 46%; remaining activity at 67 µM (TsTS; compound 67 µM, 250 µM meTHF): 76%; remaining activity at 667 µM (TsTS; compound 667 µM, 250 µM meTHF): 47%; remaining activity at 667 µM (hTS; compound 667 µM (highest obtained concentration), 20 µM dUMP, 250 µM meTHF): > 100%; IC50 (mTS; [4]): > 667 µM; remaining activity at 667 µM (mTS; [11]): 73%
10 | O=C(/C=C/c1ccc(O)c(O)c1)O[C@@H]1C[C@](O)(C(=O)O)C[C@@H](O)[C@H]1O [Chlorogenic acid (3), Chlorogenic acid] | > 1000 µM | – | 82% | > 1000 µM | 94% | – | 76% | 83% | IC50 (hTS; 20 µM dUMP, 250 µM meTHF): > 1000 µM; IC50 (mTS; [4]): > 1000 µM
11 | CC12CCC3C(C1)c1c(cc(O)c(C(=O)c4ccccc4)c1OC3(C)C)O2 (stereo not drawn) [Clusiacitran A (9), Clusiacitran A] | – | – | – | > 1000 µM | 95% | 89% | 47% | 62% | remaining activity at 100 µM (CeTS): 88%; remaining activity at 1000 µM (CeTS): 44%; IC50 (CeTS; [7]): > 100 µM; IC50 (mTS; [7]): > 1000 µM
12 | COc1cc(/C=C/C(=O)CC(=O)/C=C/c2ccc(O)c(OC)c2)ccc1O [Curcumin (1), Curcumin] | – | – | – | > 500 µM | – | – | – | – | remaining activity at 50 µM (CeTS; [12]): 84%; remaining activity at 500 µM (CeTS; [13]): 30%; remaining activity at 500 µM (TsTS; compound 500 µM, 250 µM meTHF): 73%; remaining activity at 50 µM (hTS; [12]): 86%; remaining activity at 500 µM (hTS; [13]): 20%; remaining activity at 50 µM (mTS; [12]): 83%; remaining activity at 500 µM (mTS; [13]): 37%
13 | CC1=C[C@]2(O)C(=O)[C@H](C)C[C@@H]3[C@H](CC[C@](C)(O)C[C@H]2C1=O)C3(C)C [Jatrowediol (10), Jatrowediol] | – | – | – | > 1000 µM | 95% | – | – | – | remaining activity at 1000 µM (CeTS): 77%; IC50 (CeTS; [7]): > 1000 µM; remaining activity at 100 µM (hTS): 100%; remaining activity at 1000 µM (hTS): 43%; remaining activity at 1000 µM (mTS): 80%; IC50 (mTS; [7]): > 1000 µM
14 | COc1cc(/C=C/C(=O)O[C@H]2[C@H](O[C@@H]3O[C@@H](C)[C@H](O)[C@@H](O)[C@H]3O)[C@@H](O)[C@H](OCCc3ccc(O)c(O)c3)O[C@@H]2CO)ccc1O [Leucosceptoside A (13), Leucosceptoside A] | > 1000 µM | – | 83% | – | > 100% | – | 66% | 77% | IC50 (hTS; 20 µM dUMP, 250 µM meTHF): > 1000 µM; IC50 (mTS; [4]): > 1000 µM
15 | CC(=O)Oc1c(O)cc(-c2oc3cc(O)cc(O)c3c(=O)c2O)cc1O [Myricetin-4′-OAc (7), Myricetin-4′-OAc] | > 100 µM | 69% | 28% | > 1000 µM | 66% | 56% | 31% | 49% | IC50 (hTS; 20 µM dUMP, 250 µM meTHF): > 1000 µM; remaining activity at 100 µM (mTS; [5]): 61%
16 | O=C(CCc1ccc(O)cc1)c1c(O)cc(O)cc1O [Phloretin (4), Phloretin] | > 100 µM | 82% | 48% | > 1000 µM | 61% | 86% | 31% | 45% | remaining activity at 100 µM (mTS; [5]): 78%
17 | COc1c(C2(O)COc3cc(O)cc(O)c3C2=O)ccc2c1C=CC(C)(C)O2 (stereo not drawn) [Sophoronol (5), Sophoronol] | > 100 µM | 77% | 8% | > 100 µM | 35% | 75% | 8% | 10% | remaining activity at 100 µM (TsTS; 250 µM meTHF): 74%; remaining activity at 100 µM (mTS; [5]): 75%
